SMILES strings stand for the structures.

For the experiment, the target named is PIK3CG (human) (UniProt P48736). The experiment in a line: Inhibition of PIK3CG Kinase Activity.
Sequence of PIK3CG (human) (P48736 whole entry, looked up): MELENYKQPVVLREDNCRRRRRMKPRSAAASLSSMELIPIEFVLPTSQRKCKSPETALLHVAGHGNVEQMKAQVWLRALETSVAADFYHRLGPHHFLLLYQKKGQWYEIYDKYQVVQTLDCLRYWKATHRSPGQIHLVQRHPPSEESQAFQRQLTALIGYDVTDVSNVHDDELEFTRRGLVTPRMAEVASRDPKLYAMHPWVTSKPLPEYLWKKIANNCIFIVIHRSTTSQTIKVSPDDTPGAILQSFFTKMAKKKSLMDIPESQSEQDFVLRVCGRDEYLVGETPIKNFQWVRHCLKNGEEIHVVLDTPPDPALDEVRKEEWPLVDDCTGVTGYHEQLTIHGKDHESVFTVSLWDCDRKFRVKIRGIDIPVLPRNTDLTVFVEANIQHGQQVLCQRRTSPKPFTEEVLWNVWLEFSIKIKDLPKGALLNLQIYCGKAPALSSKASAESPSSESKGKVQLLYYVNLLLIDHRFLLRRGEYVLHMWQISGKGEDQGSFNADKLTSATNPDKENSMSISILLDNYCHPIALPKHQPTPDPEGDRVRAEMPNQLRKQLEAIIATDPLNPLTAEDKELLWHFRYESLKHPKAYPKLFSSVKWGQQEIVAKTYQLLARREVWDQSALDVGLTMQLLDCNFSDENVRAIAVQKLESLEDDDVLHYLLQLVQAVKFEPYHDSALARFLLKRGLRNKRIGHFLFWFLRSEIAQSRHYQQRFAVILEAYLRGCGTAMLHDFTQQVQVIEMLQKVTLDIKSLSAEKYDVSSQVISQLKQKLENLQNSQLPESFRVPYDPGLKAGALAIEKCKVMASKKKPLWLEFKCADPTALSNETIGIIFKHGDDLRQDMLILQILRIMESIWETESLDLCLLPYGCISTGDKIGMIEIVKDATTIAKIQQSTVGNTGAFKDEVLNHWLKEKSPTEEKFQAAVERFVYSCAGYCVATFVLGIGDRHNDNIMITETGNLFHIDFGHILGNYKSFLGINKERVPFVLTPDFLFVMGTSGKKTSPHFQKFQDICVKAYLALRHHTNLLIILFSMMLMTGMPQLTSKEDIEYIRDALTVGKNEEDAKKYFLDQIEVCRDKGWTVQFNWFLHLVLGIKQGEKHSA
One may read the Ki as the equilibrium dissociation constant of an inhibitor or competing ligand from its target. For `COc1cncc(-c2cc(C)c3c(n2)CN(c2ccn(CC(C)(C)O)n2)C3=O)c1`, the Ki is less than 100 nM. In turn, `Cc1cc(-c2cnc(C)c(OCC(F)(F)F)c2)nc2c1C(=O)N(c1ccn([C@H]3CCOC3)n1)C2` registered a Ki of less than 100 nM.

`COc1cc(-c2ccc3c(n2)CN(c2cnn(CC4CNC(=O)O4)c2)C3=O)cnc1OC` (centres undefined): the Ki was less than 100 nM.

For `COc1cc(-c2cc(C)c3c(n2)CN(c2cc(C)n(CCC4OCCCO4)n2)C3=O)cnc1OC`, the Ki was less than 100 nM. For `CCOc1ncc(-c2cc(C)c3c(c2)CN(c2cnn(CC(F)(F)F)c2)C3=O)cc1OC` the value was less than 100 nM. For `Cc1cc(-c2cncc(OC3CC3)c2)nc2c1C(=O)N(c1cnn(CC(F)(F)F)c1)C2(C)C` the value was less than 100 nM. For `CO[C@@H]1c2nc(-c3cncc(OCC(F)F)c3)cc(C)c2C(=O)N1c1cnn(CC(F)(F)F)c1` the value was less than 100 nM; for `Cc1cc(-c2cncc(OCC(F)F)c2)nc2c1C(=O)N(c1cc[nH]n1)C2C` (centres undefined), 100 to 490 nM. `COc1cc(-c2ccc3c(n2)C(C)N(c2ccnc(C(C)C#N)c2)C3=O)cnc1OC` (centres undefined) yielded a Ki of less than 100 nM. `Cc1cc(-c2cccnc2)nc2c1C(=O)N(c1cnn(CC#N)c1)C2` came in with a Ki of less than 100 nM. For `Cc1cc(-c2cncc(OCC(F)F)c2)nc2c1C(=O)N(c1cnn(CC(F)(F)F)c1)C2(C)C` the value was less than 100 nM; for `COc1cc(-c2ccc3c(n2)C(C)N(c2cn(CC(F)(F)F)cn2)C3=O)cnc1OC` (centres undefined), less than 100 nM. `CCn1ccc(N2Cc3cc(-c4cnc(OC)c(OC)c4)ccc3C2=O)n1` had a Ki of less than 100 nM.

As to `Cc1cc(-c2cncc(O)c2)nc2c1C(=O)N(c1cnn(CC(F)(F)F)c1)C2`, the Ki was less than 100 nM. For `COc1cc(-c2ccc3c(n2)CN(c2cnn(CC(F)(F)F)c2)C3=O)cnc1OC` the value was less than 100 nM; for `Cc1cc(-c2cncc(S(C)(=O)=O)c2)nc2c1C(=O)N(c1cnn(CC(F)(F)F)c1)[C@H]2C`, less than 100 nM; for `Cc1cc(-c2cncc(OCC(F)(F)F)c2)nc2c1C(=O)N(c1cnn(CC(F)(F)F)c1)[C@H]2C`, less than 100 nM. Molecule `COc1cc(-c2ccc3c(n2)CN(c2cnn(C)c2)C3=O)cnc1OC` had a Ki of less than 100 nM. For `CCOc1ncc(-c2cc(C)c3c(n2)CN(c2cc[nH]n2)C3=O)cc1OC` the value was less than 100 nM. For `COc1cncc(-c2cc(C)c3c(n2)C(C)(C)N(c2ccn(C[C@H](C)O)n2)C3=O)c1` the value was less than 100 nM; for `COc1cc(-c2ccc3c(n2)CN(c2cc(C)[nH]n2)C3=O)cnc1OC`, less than 100 nM. For `COc1cc(-c2ccc3c(n2)CN(c2cncc(CC#N)c2)C3=O)cnc1OC` the value was less than 100 nM; for `COc1cc(-c2ccc3c(n2)CN(c2cnn(Cc4cccnc4C)c2)C3=O)cnc1OC`, less than 100 nM. As for `CCOc1cc(-c2cc(C)c3c(n2)C(C)(C)N(c2cnn(CC(F)(F)F)c2)C3=O)cnc1C`, the Ki was less than 100 nM. With `Cc1cc(-c2cncc(C(=O)O)c2)nc2c1C(=O)N(c1cnn(CC(F)(F)F)c1)C2(C)C`, the Ki was less than 100 nM. Molecule `COc1ncc(-c2cc(C)c3c(n2)C(C)(C)N(c2cnn(CC(F)(F)F)c2)C3=O)cc1C(=O)N[C@@H]1CCOC1` had a Ki of less than 100 nM. For `COc1cc(-c2ccc3c(n2)CN(c2cnn(CCN4CCN(C(C)=O)CC4)c2)C3=O)cnc1OC` the value was 100 to 490 nM; for `CCn1cc(N2Cc3nc(-c4cnc(OC)c(OC)c4)ccc3C2=O)ccc1=O`, less than 100 nM; for `COc1cncc(-c2cc(C)c3c(n2)C(C)(C)N(c2ccn(CC(C)(C)O)n2)C3=O)c1`, 100 to 490 nM.

With `COc1cc(-c2ccc3c(n2)C(C)N(c2ccnc(CC#N)c2)C3=O)cnc1OC` (centres undefined), the Ki was less than 100 nM. Take `Cc1cc(-c2cc(C)c3c(n2)CN(c2cnn(CC(F)(F)F)c2)C3=O)ccn1`: the Ki is less than 100 nM. For `Cc1cc(-c2ccc(Cl)c(O)c2)nc2c1C(=O)N(c1cnn(CC(F)(F)F)c1)C2` the value was less than 100 nM; for `CCOc1ncc(-c2cc(C)c3c(n2)CN(c2cnn(C(C)(C)C#N)c2)C3=O)cc1OC`, less than 100 nM; for `Cc1cc(-c2cncc(OC(F)F)c2)nc2c1C(=O)N(c1cnn(CC(F)(F)F)c1)C2`, less than 100 nM.

The record behind these values is the Kinase Knowledgebase extract (Sharma et al. 2016).
